Source: BindingDB's records for doi:10.1021/jm00081a005 (University of Wisconsin-Madison, 1992)

Assay: Compound was tested for binding affinity towards cytosolic aminopeptidase

CC(=O)[C@@H](N)CC(C)C
Ki: > 600 µM
